Bounds are passed on as bounds.

Assay type in all cases: cell-based
The target of one test is T1, EGFR L858R (Ba/F3 cells) (Homo sapiens, UniProt P00533, L858R).
T1 construct: expressed in transfected cells; host or cells: Ba/F3 (murine pro-B cells), retroviral transduction, puromycin selection, IL3-independent pool
The experiment in a line: Inhibitor activity on EGFR-dependent cell growth (CellTiter-Glo, 72 h), Ba/F3 EGFR L858R. The conditions noted are these: read-out: BaF3 L858R IC50. In outline:
(§1)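 Compounds, serially diluted 3-fold over 10 points in DMSO and added at 120 nL per well, act on Ba/F3 EGFR-mutant cells for 72 h. Seeding is 800 (exon 19del, FQEA), 600 (L858R/C797S) or 400 (L858R) cells/well. CTG luminescence is fitted with a four-parameter logistic curve to give IC50.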
(In general: ATP-based viability assays read luminescence as a measure of living cells.)

Test [1] has as its target EGFR exon 19del (Ba/F3 cells) (Homo sapiens, UniProt P00533). The experiment in a line: Inhibitor activity on EGFR-dependent cell growth (CellTiter-Glo, 72 h), Ba/F3 EGFR exon 19del. The conditions noted are these: Ba/F3 EGFR exon 19del cell growth, read-out: BaF3 Del19 IC50. The essentials: as §1
For the next test, the target named is T2, EGFR WT (Ba/F3 cells) (Homo sapiens, UniProt P00533).
T2 construct: expressed in transfected cells; host or cells: Ba/F3 (murine pro-B cells), retroviral transduction, puromycin selection, maintained with EGF
The experiment in a line: Inhibitor activity on EGFR-dependent cell growth (CellTiter-Glo, 72 h), Ba/F3 EGFR WT. Conditions: read-out: BaF3 WT IC50. The essentials: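 This growth assay used Ba/F3 cells that depend on wild-type EGFR and are kept in EGF without IL3. Compounds were made up as 10 mM DMSO stocks and diluted 3-fold over 10 points. 120 nL went onto 600 cells/well. After 72 hours, 40 μL CellTiter-Glo was added and luminescence read on EnVision after 30 min.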

In test [2] the target is T3, EGFR exon 20 NPG Ins D770_N771 (Ba/F3 cells) (Homo sapiens, UniProt P00533, INS770NPG).
T3 construct: expressed in transfected cells; host or cells: Ba/F3 (murine pro-B cells), retroviral transduction, puromycin selection, IL3-independent pool
The experiment in a line: Inhibitor activity on EGFR-dependent cell growth (CellTiter-Glo, 72 h), Ba/F3 EGFR exon 20 NPG Ins. The conditions noted are these: read-out: BaF3 NPG IC50. The essentials: (§2)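 IC50s derive from a sigmoidal dose–response fit of CellTiter-Glo signal. The signal was normalised between […]-treated cells and cell-free medium. Ba/F3 mutant-EGFR cells, seeded at 400–800/well depending on the line, had 72 h of exposure to a 10-point, 3-fold compound series.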

In test [3] the target is T4, EGFR exon 20 ASV Ins V769_D770 (Ba/F3 cells) (Homo sapiens, UniProt P00533, INS769ASV).
T4 construct: expressed in transfected cells; host or cells: Ba/F3 (murine pro-B cells), retroviral transduction, puromycin selection, IL3-independent pool
The experiment in a line: Inhibitor activity on EGFR-dependent cell growth (CellTiter-Glo, 72 h), Ba/F3 EGFR exon 20 ASV Ins. Conditions: read-out: BaF3 ASV IC50. In outline:
as §2

For test [4], the target named is T5, EGFR exon 20 SVD Ins D770_N771 (Ba/F3 cells) (Homo sapiens, UniProt P00533, INS770SVD).
T5 construct: expressed in transfected cells; host or cells: Ba/F3 (murine pro-B cells), retroviral transduction, puromycin selection, IL3-independent pool
The experiment in a line: Inhibitor activity on EGFR-dependent cell growth (CellTiter-Glo, 72 h), Ba/F3 EGFR exon 20 SVD Ins. Conditions: read-out: BaF3 SVD IC50. The essentials: as §2

Test [5] has as its target T6, EGFR exon 20 FQEA Ins A763_V764 (Ba/F3 cells) (Homo sapiens, UniProt P00533, INS763FQEA).
T6 construct: expressed in transfected cells; host or cells: Ba/F3 (murine pro-B cells), retroviral transduction, puromycin selection, IL3-independent pool
The experiment in a line: Inhibitor activity on EGFR-dependent cell growth (CellTiter-Glo, 72 h), Ba/F3 EGFR exon 20 FQEA Ins. Conditions: read-out: BaF3 FQEA IC50. In outline:
as §1

A further test has as its target EGFR (CUTO14 cells) (Homo sapiens, UniProt P00533). The experiment in a line: Inhibitor activity on EGFR phosphorylation (pEGFR AlphaLISA, 2 h), CUTO14 cells. From the text: Example B. Inhibitor Activity on EGFR phosphorylation (pEGFR)
EGFR mutant Ba/F3 cells were generated by transduction with retrovirus containing vectors expressing EGFR L858R, EGFR exon 19del, EGFR L858R/C797S, EGFR exon 20 NPG Ins D770_N771, EGFR exon 20 ASV Ins V769_D770, or EGFR exon 20 SVD Ins D770_N771 genes along with a puromycin selection marker. Transduced cells are selected with puromycin for 7 days and are then be transferred into culture media without Interleukin 3 (IL3). Surviving cells are confirmed to express EGFR by Western blot and maintained as a pool. CUTO14 cells were obtained from Dr. Robert C. Doebele at the University of Colorado. The IC50 date are included in Table 6 and Table 7.
1.1 Cells are harvested from flask into cell culture medium and the cell number counted.
1.2 Cells are diluted with culture medium to the desired density and 40 μL of cell suspension is added into each well of 384-well cell culture plate and the seeding density is 50K cells/well (Ba/F3) or 12.5K cells/well (CUTO14).
2 Compound Preparation and Treatment
2.1 Test compounds are dissolved to 10 mM in a DMSO stock solution. 45 μL of stock solution is transferred to a 384 polypropylene plate (pp-plate). Perform 3-fold, 10-point dilution via transferring 15 μL compound into 30 μL DMSO using a TECAN (EVO200) liquid handler.
2.2 Spin plates at room temperature at 1,000 RPM for 1 minute.
2.3 Transfer 5 nL of diluted compound from compound source plate into the cell plate.
2.4 After compound treatment for 2 hours, perform pEGFR detection by AlphaLISA for compound treatment plates as described in “Detection” section.
3 Detection by pEGFR AlphaLISA (Perkin-Elmer)
3.1 Plates are removed from incubators and equilibrated at room temperature for 10 minutes, and media was removed
3.2 10 μL of lysis buffer is added and plates shaken at 600 rpm for 1 hr.
3.3 Prepare acceptor mix just before use and dispense 5 μL of acceptor mix to all the wells. Shake 350 rpm for Ihr in the dark
3.4 Prepare donor mix under low light conditions prior to use. Dispense 5 μL of donor mix to all the wells. Mix well on the shaker, seal and wrap in aluminum foil and incubate 1.5 hrs at room temperature in the dark
3.5 Transfer 18.5 μL mixture to OptiPlate 384, and read using an Envision. The IC50 date were included in Table 6 and Table 7.
For orientation: Bead proximity is the source of the signal in Alpha formats.

T6 sequence (P00533 with tags, fused parts or gaps INS763FQEA): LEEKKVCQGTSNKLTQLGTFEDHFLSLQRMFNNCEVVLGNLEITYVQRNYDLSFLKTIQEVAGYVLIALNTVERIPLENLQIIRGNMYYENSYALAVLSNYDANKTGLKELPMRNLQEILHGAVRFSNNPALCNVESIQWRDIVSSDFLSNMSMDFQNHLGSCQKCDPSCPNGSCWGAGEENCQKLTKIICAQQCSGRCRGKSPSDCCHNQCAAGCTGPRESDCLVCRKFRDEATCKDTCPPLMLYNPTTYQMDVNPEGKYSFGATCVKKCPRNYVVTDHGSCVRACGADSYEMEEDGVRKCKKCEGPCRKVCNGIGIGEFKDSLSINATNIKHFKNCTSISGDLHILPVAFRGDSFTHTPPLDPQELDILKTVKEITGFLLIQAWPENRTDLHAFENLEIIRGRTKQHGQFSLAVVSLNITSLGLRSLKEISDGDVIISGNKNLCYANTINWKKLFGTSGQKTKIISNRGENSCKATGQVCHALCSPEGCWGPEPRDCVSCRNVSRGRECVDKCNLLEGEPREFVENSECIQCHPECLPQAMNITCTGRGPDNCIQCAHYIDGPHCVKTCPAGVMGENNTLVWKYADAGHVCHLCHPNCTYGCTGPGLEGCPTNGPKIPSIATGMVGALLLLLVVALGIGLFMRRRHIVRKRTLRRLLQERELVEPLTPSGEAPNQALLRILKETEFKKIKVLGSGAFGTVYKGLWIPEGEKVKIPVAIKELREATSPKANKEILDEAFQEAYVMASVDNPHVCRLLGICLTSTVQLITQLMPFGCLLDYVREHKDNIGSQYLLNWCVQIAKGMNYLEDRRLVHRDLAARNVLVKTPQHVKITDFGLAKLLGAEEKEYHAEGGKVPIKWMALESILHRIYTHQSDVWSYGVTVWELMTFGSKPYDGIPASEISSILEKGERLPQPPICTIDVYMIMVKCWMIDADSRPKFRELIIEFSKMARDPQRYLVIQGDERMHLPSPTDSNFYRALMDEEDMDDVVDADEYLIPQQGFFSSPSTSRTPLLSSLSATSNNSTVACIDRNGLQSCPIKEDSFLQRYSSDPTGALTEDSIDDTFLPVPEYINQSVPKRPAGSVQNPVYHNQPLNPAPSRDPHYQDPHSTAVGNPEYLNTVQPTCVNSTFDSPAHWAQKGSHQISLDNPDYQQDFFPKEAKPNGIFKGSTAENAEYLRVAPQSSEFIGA
T4 sequence (P00533 with tags, fused parts or gaps INS769ASV): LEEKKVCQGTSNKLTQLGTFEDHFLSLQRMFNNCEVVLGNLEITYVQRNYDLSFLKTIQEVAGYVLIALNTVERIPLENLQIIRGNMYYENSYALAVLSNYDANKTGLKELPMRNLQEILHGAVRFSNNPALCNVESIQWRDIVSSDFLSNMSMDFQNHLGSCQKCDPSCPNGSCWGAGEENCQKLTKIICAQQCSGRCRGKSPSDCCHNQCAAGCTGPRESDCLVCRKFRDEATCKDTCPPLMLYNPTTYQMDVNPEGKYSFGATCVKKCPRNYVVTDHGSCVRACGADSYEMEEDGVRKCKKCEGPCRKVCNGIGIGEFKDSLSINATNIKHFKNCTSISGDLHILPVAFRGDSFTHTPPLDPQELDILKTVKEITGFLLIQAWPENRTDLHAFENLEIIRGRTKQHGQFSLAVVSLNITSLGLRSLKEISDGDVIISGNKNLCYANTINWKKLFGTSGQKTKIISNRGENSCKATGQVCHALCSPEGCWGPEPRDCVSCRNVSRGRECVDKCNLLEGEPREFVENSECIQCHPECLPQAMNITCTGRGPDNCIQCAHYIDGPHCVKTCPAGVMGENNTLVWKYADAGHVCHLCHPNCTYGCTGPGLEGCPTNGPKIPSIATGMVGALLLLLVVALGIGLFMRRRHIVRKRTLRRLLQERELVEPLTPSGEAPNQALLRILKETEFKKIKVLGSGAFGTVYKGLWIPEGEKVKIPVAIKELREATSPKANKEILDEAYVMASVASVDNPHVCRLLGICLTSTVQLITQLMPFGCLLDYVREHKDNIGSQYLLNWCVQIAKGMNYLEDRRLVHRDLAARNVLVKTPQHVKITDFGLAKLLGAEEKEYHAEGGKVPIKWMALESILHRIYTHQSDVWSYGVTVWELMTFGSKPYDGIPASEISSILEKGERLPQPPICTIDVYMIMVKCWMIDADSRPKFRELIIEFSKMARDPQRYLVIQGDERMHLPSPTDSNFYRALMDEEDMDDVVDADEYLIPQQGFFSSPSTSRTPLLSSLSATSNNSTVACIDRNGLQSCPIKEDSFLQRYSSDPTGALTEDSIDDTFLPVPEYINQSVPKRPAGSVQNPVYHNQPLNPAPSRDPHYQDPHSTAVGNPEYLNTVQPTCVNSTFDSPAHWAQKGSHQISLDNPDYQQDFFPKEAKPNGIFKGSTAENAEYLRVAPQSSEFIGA
T2 sequence (P00533 25-1210): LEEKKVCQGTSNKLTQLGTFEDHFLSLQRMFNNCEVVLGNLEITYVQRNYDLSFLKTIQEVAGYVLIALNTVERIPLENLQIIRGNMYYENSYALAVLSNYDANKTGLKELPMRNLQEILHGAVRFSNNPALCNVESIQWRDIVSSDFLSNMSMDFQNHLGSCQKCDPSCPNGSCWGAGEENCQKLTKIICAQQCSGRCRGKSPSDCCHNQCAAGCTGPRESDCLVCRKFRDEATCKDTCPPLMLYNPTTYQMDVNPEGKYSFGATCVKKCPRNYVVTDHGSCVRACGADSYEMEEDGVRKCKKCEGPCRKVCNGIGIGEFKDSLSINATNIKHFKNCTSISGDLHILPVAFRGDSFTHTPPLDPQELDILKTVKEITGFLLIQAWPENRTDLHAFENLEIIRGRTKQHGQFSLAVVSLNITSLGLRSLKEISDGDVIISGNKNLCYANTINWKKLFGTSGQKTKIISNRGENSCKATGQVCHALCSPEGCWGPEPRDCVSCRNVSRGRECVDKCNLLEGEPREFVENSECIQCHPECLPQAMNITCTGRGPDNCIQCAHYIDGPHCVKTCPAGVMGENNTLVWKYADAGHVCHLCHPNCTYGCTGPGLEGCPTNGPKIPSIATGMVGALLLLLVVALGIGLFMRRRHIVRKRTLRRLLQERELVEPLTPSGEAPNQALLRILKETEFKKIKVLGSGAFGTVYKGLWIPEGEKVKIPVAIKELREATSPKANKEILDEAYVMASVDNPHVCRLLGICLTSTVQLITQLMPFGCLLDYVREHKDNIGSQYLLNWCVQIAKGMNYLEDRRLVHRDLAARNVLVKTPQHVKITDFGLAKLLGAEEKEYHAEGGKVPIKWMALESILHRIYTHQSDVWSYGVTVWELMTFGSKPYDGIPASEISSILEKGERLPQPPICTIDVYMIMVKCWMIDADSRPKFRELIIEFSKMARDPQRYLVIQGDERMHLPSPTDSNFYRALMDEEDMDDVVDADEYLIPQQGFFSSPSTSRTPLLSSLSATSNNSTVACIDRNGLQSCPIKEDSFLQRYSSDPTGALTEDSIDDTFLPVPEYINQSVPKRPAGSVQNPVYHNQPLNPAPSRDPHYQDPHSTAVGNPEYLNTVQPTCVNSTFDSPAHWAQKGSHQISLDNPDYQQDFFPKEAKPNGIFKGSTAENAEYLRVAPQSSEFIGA
Sequence of EGFR exon 19del (Ba/F3 cells) (P00533 with tags, fused parts or gaps DEL746-750): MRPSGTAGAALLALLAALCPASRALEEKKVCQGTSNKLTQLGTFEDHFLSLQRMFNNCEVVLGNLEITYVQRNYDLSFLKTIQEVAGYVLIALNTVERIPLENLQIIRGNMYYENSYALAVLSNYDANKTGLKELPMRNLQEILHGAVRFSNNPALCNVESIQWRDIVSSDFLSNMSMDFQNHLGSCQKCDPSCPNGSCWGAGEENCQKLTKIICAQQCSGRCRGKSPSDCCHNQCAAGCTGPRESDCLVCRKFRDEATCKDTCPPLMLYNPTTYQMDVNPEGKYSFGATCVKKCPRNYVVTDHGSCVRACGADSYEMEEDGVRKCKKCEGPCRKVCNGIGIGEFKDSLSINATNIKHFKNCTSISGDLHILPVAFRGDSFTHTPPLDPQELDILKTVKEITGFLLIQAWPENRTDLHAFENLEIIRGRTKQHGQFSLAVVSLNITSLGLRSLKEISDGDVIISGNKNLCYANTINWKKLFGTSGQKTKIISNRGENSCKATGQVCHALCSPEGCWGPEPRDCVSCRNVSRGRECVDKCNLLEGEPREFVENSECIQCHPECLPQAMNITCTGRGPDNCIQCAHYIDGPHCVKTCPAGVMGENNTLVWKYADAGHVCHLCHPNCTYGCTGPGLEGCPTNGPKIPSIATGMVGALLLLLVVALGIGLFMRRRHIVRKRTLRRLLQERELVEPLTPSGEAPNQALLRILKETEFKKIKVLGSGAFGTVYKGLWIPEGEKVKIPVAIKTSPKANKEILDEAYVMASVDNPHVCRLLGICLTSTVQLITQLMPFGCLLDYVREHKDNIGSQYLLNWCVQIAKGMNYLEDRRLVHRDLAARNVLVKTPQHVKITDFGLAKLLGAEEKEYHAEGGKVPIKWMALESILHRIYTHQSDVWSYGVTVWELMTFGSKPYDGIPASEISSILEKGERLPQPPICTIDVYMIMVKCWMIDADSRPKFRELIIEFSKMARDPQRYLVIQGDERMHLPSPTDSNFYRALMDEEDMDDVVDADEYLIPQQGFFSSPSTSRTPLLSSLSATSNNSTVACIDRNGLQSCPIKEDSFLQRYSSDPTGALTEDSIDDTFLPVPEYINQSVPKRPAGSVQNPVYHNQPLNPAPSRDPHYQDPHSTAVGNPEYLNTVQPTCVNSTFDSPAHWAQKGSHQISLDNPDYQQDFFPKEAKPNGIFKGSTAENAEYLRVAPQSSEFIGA

A word on the IC50: it is the concentration that inhibits the measured activity by half. Consider `C=CC(=O)N1CCC2(CC1)CNC(=O)c1c2[nH]c(-c2ccncc2F)c1Nc1cc(F)cc(Cl)c1OC` [Compound 559, 3′-[(3-chloro-5-fluoro-2-methoxyphenyl)amino]-2′-(3-fluoropyridin-4-yl)-1-(prop-2-enoyl)-5′,6′-dihydro-1′H-spiro[piperidine-4,7′-pyrrolo[3,2-c]pyridin]-4′-one], for which the IC50 (on EGFR L858R (Ba/F3 cells); in test [1]; on EGFR WT (Ba/F3 cells); in test [2]; in test [3]; in test [4]) was under 100 nM in each case. The concentration for half-maximal inhibition (IC50) (in test [5]; against EGFR (CUTO14 cells)) was under 100 nM in each case.
For `COc1c(Cl)cccc1Nc1c(-c2ccnc(N)n2)[nH]c2c1C(=O)NC[C@@H]2C[C@H]1COCCO1` [Compound 531, (7S)-2-(2-aminopyrimidin-4-yl)-3-[(3-chloro-2-methoxyphenyl)amino]-7-[(2S)-1,4-dioxan-2-ylmethyl]-1H,5H,6H,7H-pyrrolo[3,2-c]pyridin-4-one], the IC50 on EGFR L858R (Ba/F3 cells) was under 100 nM; in test [1], under 100 nM; at EGFR WT (Ba/F3 cells), 100 to 1000 nM; in test [2], under 100 nM; in test [3], under 100 nM; in test [4], under 100 nM. For the same compound, the half-inhibitory concentration (IC50) (in test [5]; against EGFR (CUTO14 cells)) was under 100 nM each time.
Consider `COc1c(Cl)cccc1Nc1c(-c2ccnc(N)n2)[nH]c2c1C(=O)NC[C@H]2C[C@H]1COCCO1` [Compound 571, (7R)-2-(2-aminopyrimidin-4-yl)-3-[(3-chloro-2-methoxyphenyl)amino]-7-[(2S)-1,4-dioxan-2-ylmethyl]-1H,5H,6H,7H-pyrrolo[3,2-c]pyridin-4-one], for which the half-inhibitory concentration (IC50) at EGFR L858R (Ba/F3 cells) was under 100 nM; in test [1] it was under 100 nM; at EGFR WT (Ba/F3 cells), 100 to 1000 nM; in test [2], under 100 nM; in test [3] it was under 100 nM; in test [4], under 100 nM. The IC50 (in test [5]; against EGFR (CUTO14 cells)) was under 100 nM in each case.
For `COc1c(Cl)cccc1Nc1c(-c2ccncc2F)[nH]c2c1C(=O)NC[C@H]2C[C@@H]1COCCO1` (single isomer, unassigned) [Compound 483], the IC50 on EGFR L858R (Ba/F3 cells) is under 100 nM; in test [1], under 100 nM; on EGFR WT (Ba/F3 cells), over 1000 nM; in test [2], under 100 nM; in test [5], 100 to 1000 nM; against EGFR (CUTO14 cells), under 100 nM.
